From ChEMBL document CHEMBL3797052 (Eur J Med Chem, 2016)

Key:
[1] = Antiproliferative activity against human UACC62 cells assessed as growth inhibition after 48 hrs by sulforhodamine B assay; format: functional; settings: UACC-62, 48 h; for CC50: read-out: LC50 (the source's name)
CCRF-CEM = experiment: Antiproliferative activity against human CCRF-CEM cells assessed as growth inhibition after 48 hrs by sulforhodamine B assay; format: functional; settings: for CC50: read-out: LC50 (the source's name)
A498 = experiment: Antiproliferative activity against human A498 cells assessed as growth inhibition after 48 hrs by sulforhodamine B assay; format: functional; settings: A498, 48 h
HT-29 = experiment: Antiproliferative activity against human HT-29 cells assessed as growth inhibition after 48 hrs by sulforhodamine B assay; format: functional; settings: HT-29, 48 h
[2] = Antiproliferative activity against human LOXIMVI cells assessed as growth inhibition after 48 hrs by sulforhodamine B assay; format: functional; settings: LOX IMVI; for CC50: read-out: LC50 (the source's name)
[3] = Antiproliferative activity against human OVCAR8 cells assessed as growth inhibition after 48 hrs by sulforhodamine B assay; format: functional; settings: OVCAR-8, 48 h
[4] = Antiproliferative activity against human COLO205 cells assessed as cell growth at 10^-7 M after 48 hrs by sulforhodamine B assay; format: functional; settings: COLO 205, 48 h, read-out: Activity
[5] = Antiproliferative activity against human TK10 cells assessed as cell growth at 10^-6 M after 48 hrs by sulforhodamine B assay; format: functional; settings: TK-10, 48 h, read-out: Activity
[6] = Antiproliferative activity against human HCC2998 cells assessed as cell growth at 10^-8 M after 48 hrs by sulforhodamine B assay; format: functional; settings: HCC 2998, 48 h, read-out: Activity
[7] = Antiproliferative activity against human UACC62 cells assessed as cell growth at 10^-8 M after 48 hrs by sulforhodamine B assay; format: functional; settings: UACC-62, 48 h, read-out: Activity
[8] = Antiproliferative activity against human SKOV3 cells assessed as cell growth at 10^-8 M after 48 hrs by sulforhodamine B assay; format: functional; settings: SK-OV-3, 48 h, read-out: Activity
[9] = Antiproliferative activity against human SF539 cells assessed as cell growth at 10^-7 M after 48 hrs by sulforhodamine B assay; format: functional; settings: SF-539, 48 h, read-out: Activity
ACHN [10] = experiment: Antiproliferative activity against human ACHN cells assessed as cell growth at 10^-6 M after 48 hrs by sulforhodamine B assay; format: functional; settings: read-out: Activity
ACHN [11] = experiment: Antiproliferative activity against human ACHN cells assessed as cell growth at 10^-8 M after 48 hrs by sulforhodamine B assay; format: functional; settings: read-out: Activity
Malme-3M = experiment: Antiproliferative activity against human MALME-3M cells assessed as cell growth at 10^-8 M after 48 hrs by sulforhodamine B assay; format: functional; settings: read-out: Activity
MDA-MB-231 = experiment: Antiproliferative activity against human MDA-MB-231 cells assessed as cell growth at 10^-6 M after 48 hrs by sulforhodamine B assay; format: functional; settings: MDA-MB-231, 48 h, read-out: Activity
MCF7 = experiment: Antiproliferative activity against human MCF7 cells assessed as cell growth at 10^-4 M after 48 hrs by sulforhodamine B assay; format: functional; settings: MCF7, 48 h, read-out: Activity
[12] = Antiproliferative activity against human UACC257 cells assessed as cell growth at 10^-6 M after 48 hrs by sulforhodamine B assay; format: functional; settings: UACC-257, 48 h, read-out: Activity
T47D = experiment: Antiproliferative activity against human T47D cells assessed as cell growth at 10^-8 M after 48 hrs by sulforhodamine B assay; format: functional; settings: read-out: Activity
[13] = Antiproliferative activity against human LOXIMVI cells assessed as cell growth at 10^-8 M after 48 hrs by sulforhodamine B assay; format: functional; settings: LOX IMVI, read-out: Activity
M14 = experiment: Antiproliferative activity against human M14 cells assessed as cell growth at 10^-7 M after 48 hrs by sulforhodamine B assay; format: functional; settings: M14, 48 h, read-out: Activity
MDA-MB-468 = experiment: Antiproliferative activity against human MDA-MB-468 cells assessed as cell growth at 10^-7 M after 48 hrs by sulforhodamine B assay; format: functional; settings: MDA-MB-468, 48 h, read-out: Activity
[14] = Antiproliferative activity against human SNB75 cells assessed as cell growth at 10^-8 M after 48 hrs by sulforhodamine B assay; format: functional; settings: SNB-75, 48 h, read-out: Activity
[15] = Antiproliferative activity against human SW620 cells assessed as cell growth at 10^-7 M after 48 hrs by sulforhodamine B assay; format: functional; settings: SW-620, 48 h, read-out: Activity
SK-MEL-2 = experiment: Antiproliferative activity against human SK-MEL-2 cells assessed as cell growth at 10^-4 M after 48 hrs by sulforhodamine B assay; format: functional; settings: SK-MEL-2, 48 h, read-out: Activity
[16] = target: Serine/threonine-protein kinase B-raf (Homo sapiens, UniProt P15056, V600E); experiment: Inhibition of BRAF V600E mutant (unknown origin) measured after 40 mins by scintillation counting
Sequence of Serine/threonine-protein kinase B-raf (P15056 2-766 V600E limits assumed): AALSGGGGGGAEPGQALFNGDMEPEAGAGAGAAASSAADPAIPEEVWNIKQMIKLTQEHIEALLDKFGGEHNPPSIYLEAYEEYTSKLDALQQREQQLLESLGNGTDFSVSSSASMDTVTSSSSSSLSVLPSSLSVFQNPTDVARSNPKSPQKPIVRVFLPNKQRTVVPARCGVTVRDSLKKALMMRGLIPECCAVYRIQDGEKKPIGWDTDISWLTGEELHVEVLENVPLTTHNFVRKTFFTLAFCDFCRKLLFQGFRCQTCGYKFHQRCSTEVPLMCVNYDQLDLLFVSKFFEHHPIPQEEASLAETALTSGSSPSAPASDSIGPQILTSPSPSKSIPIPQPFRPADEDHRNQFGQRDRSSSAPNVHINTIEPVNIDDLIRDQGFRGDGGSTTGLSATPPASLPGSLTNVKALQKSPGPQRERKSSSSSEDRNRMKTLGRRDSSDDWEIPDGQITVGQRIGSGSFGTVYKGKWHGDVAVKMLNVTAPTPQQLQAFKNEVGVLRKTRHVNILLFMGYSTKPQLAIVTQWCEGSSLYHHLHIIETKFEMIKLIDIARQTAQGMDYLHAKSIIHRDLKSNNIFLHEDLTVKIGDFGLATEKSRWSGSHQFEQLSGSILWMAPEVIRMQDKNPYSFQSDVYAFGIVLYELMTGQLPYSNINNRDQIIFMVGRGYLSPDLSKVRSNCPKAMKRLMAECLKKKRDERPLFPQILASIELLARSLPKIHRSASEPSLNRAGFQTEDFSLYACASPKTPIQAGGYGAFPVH

[17] = Antiproliferative activity against human Hs 578T cells assessed as cell growth at 10^-8 M after 48 hrs by sulforhodamine B assay; format: functional; settings: read-out: Activity
[18] = Antiproliferative activity against human SKOV3 cells assessed as cell growth at 10^-6 M after 48 hrs by sulforhodamine B assay; format: functional; settings: SK-OV-3, 48 h, read-out: Activity
[19] = Antiproliferative activity against human HOP92 cells assessed as cell growth at 10^-4 M after 48 hrs by sulforhodamine B assay; format: functional; settings: HOP-92, 48 h, read-out: Activity
U-251 = experiment: Antiproliferative activity against human U251 cells assessed as cell growth at 10^-8 M after 48 hrs by sulforhodamine B assay; format: functional; settings: U-251, 48 h, read-out: Activity
SK-MEL-28 = experiment: Antiproliferative activity against human SK-MEL-28 cells assessed as cell growth at 10^-4 M after 48 hrs by sulforhodamine B assay; format: functional; settings: SK-MEL-28, 48 h, read-out: Activity
NCI-H460 = experiment: Antiproliferative activity against human NCI-H460 cells assessed as cell growth at 10^-8 M after 48 hrs by sulforhodamine B assay; format: functional; settings: NCI-H460, 48 h, read-out: Activity
786-0 = experiment: Antiproliferative activity against human 786-0 cells assessed as cell growth at 10^-8 M after 48 hrs by sulforhodamine B assay; format: functional; settings: 786-0, 48 h, read-out: Activity
[20] = Antiproliferative activity against human BT549 cells assessed as cell growth at 10^-8 M after 48 hrs by sulforhodamine B assay; format: functional; settings: BT-549, 48 h, read-out: Activity
[21] = Antiproliferative activity against human OVCAR3 cells assessed as cell growth at 10^-4 M after 48 hrs by sulforhodamine B assay; format: functional; settings: OVCAR-3, 48 h, read-out: Activity
[22] = Antiproliferative activity against human Caki1 cells assessed as cell growth at 10^-4 M after 48 hrs by sulforhodamine B assay; format: functional; settings: CAKI-1, 48 h, read-out: Activity

## CNC(=O)c1cc(Oc2ccc(NC(=O)Nc3ccc(Cl)c(C(F)(F)F)c3)cc2)ccn1 [SORAFENIB]
[1]
  TGI: 5.01 µM
  CC50: 20 µM
CCRF-CEM
  GI50: 2 µM
  TGI: 100 µM
  CC50: 100 µM
A498
  GI50: 2.51 µM
  TGI: 6.31 µM
HT-29
  GI50: 2 µM
  TGI: 7.94 µM
[2]
  TGI: 3.16 µM
  CC50: 7.94 µM
[3]
  GI50: 2.51 µM
  TGI: 10 µM

## CNC(=O)c1cc(Oc2ccc3nc(NC(=O)c4cc(C(F)(F)F)cc(C(F)(F)F)c4)sc3c2)ccn1
[4]
  growth at 0.1 µM: 91%
[5]
  growth at 1 µM: 97%
[6]
  growth at 0.01 µM: 105%
[1]
  GI50: 2.71 µM
  TGI: 12.1 µM
  CC50: 80.5 µM
[7]
  growth at 0.01 µM: 89%
[8]
  growth at 0.01 µM: 100%
[9]
  growth at 0.1 µM: 91%
ACHN [10]
  growth at 1 µM: 96%
ACHN [11]
  growth at 0.01 µM: 104%
Malme-3M
  growth at 0.01 µM: 94%
MDA-MB-231
  growth at 1 µM: 114%
MCF7
  growth at 100 µM: -49%
[12]
  growth at 1 µM: 101%
T47D
  growth at 0.01 µM: 97%
[13]
  growth at 0.01 µM: 97%
CCRF-CEM
  GI50: 3.47 µM
  TGI: > 100 µM
  CC50: > 100 µM
M14
  growth at 0.1 µM: 91%
A498
  GI50: 1.45 µM
  LC50 (concentration killing 50% of cells): 30.9 µM
  TGI: 4.51 µM
MDA-MB-468
  growth at 0.1 µM: 96%
[14]
  growth at 0.01 µM: 82%
[15]
  growth at 0.1 µM: 102%
SK-MEL-2
  growth at 100 µM: -53%
[16]
  IC50: 4.3 µM
[17]
  growth at 0.01 µM: 94%
[18]
  growth at 1 µM: 90%
[19]
  growth at 100 µM: -41%
U-251
  growth at 0.01 µM: 98%
SK-MEL-28
  growth at 100 µM: -13%
NCI-H460
  growth at 0.01 µM: 99%
786-0
  growth at 0.01 µM: 98%
[20]
  growth at 0.01 µM: 97%
[21]
  growth at 100 µM: -79%
[22]
  growth at 100 µM: -63%
HT-29
  GI50: 3.86 µM
  LC50: 96.9 µM
  TGI: 16.8 µM
[2]
  GI50: 3.39 µM
  TGI: 15.1 µM
  CC50: 97.5 µM
[3]
  GI50: 3.06 µM
  LC50: 69.9 µM
  TGI: 13 µM
